Assay results as given in PubChem BioAssay AID2060502 (Molecular Pharmacology Branch, DTP, NCI, 2025).

Tested on: 885724-159-R-J1-PDC complex spheroid viability
Assay: Anticancer human tumor 885724-159-R-J1-PDC patient-derived pancreatic adenocarcinoma cell line growth inhibition [GQUAD]
Conditions: for IC50: curve of first compound; for viability, T/C: stronger effect = lower value
Description: DNA G-quadruplex Stabilizer Agents in Combinations in Complex Spheroids
A high-throughput screen of multi-cell type tumor spheroids was designed to identify active combinations of DNA G-quadruplex stabilizer agents and targeted small molecules. Complex spheroids include a stromal component modeled by human endothelial cells (HUVEC) and fibroblasts modeled by human mesenchymal stem cells (MSCs). The concentration ranges selected for each drug and investigational agent were based upon clinically achievable concentrations if the clinical Cmax of the agent was known.
Compounds. The drugs and investigational agents: pidnarulex (CX-5461; NSC782164), APTO-253 (NSC789042), BRACO-19 (NSC847499), peposertib (NSC802822), ceralasertib (NSC780249), elimusertib (NSC800525), camonsertib (NSC841442), AZD-1390 (NSC803789), olaparib (NSC753686), talazoparib (NSC767125), ART-558 (NSC835418), sotorasib (NSC818433), MRTX-1133 (NSC836407), SN-38 (NSC673596), topotecan (NSC609699), etoposide (NSC141540), doxorubicin (NSC123127), gemcitabine (NSC613327), 5-fluorouracil (NSC19893), paclitaxel (NSC125973), vemurafenib (NSC761431), panobinostat (NSC761190), R-306465 (JNJ-16241199; NSC773264), adavosertib (NSC754352), TP-3654 (NSC805149), carboplatin (NSC241240), KSQ-4279 (NSC840948), and staurosporine (NSC755774) were obtained from the National Cancer Institute (NCI) Developmental Therapeutics Program Chemical Repository (34). The FDA-approved anticancer drug set is available from the NCI Developmental Therapeutics Program. […] The stock solutions were prepared in dimethyl sulfoxide (DMSO, Sigma-Aldrich, St. Louis, MO, cat. D2650) at 800-fold the tested concentration and stored at -70 degrees C prior to their use. All drugs and investigational agents were tested over a range starting from a high concentration at or near the clinical Cmax and decreasing in half-log increments. If the clinical Cmax for an agent had not been determined, the highest concentration tested was 10 microM.
2.3 Cell Culture. All cells were maintained in an incubator at 37 degrees C and 5% CO2 with 95% humidity. The PDC lines were cultured according to standard operating procedures established by the NCI PDMR. All PDCs were thawed and cultured in Matrigel-coated flasks prepared with a working solution of 1X Ham's F-12 nutrient mix, without supplementation (Invitrogen, cat. 11765054), 100 U/mL penicillin-streptomycin (Invitrogen, cat. 15140122), and 2.5% Matrigel (Corning Inc., cat. 354248) for the first three passages. The 857933-349-R-J2-PDC line was cultured in 6C/Colon 1B media, which includes advanced DMEM/F-12 (Thermo Fisher Scientific, cat. 12634028), 10 mM HEPES (Thermo Fisher Scientific, cat. 15630080), 1X GlutaMAX supplement (Thermo Fisher Scientific, cat. 35050061), 0.1 mg/mL primocin (InvivoGen, cat. ant-pm-2), 10% defined fetal bovine serum, heat inactivated (HyClone Laboratories Inc., cat. SH30070.03HI), 50% L-WRN conditioned media (ATCC, cat. CRL-3276), 1.25 mM N-Acetyl-L-cysteine (Sigma-Aldrich, cat. A9165), 10 mM nicotinamide (Sigma-Aldrich, cat. N0636), 1X B-27 supplement (Thermo Fisher Scientific, cat. 17504044), 1X N-2 supplement (Thermo Fisher Scientific, cat. 17502048), 10 microM Y-27632 dihydrochloride (Tocris Bioscience, cat. 1254), and 50 ng/mL human EGF recombinant protein (Thermo Fisher Scientific, cat. PHG0311). The 485176-168-R4-J1-PDC line was cultured in Panc media, which includes all 6C/Colon 1B media components plus 100 ng/mL human FGF-10 (Thermo Fisher Scientific, cat. 100-26), 500 nM SB-431542 (Selleckchem, cat. S1067), and gastrin (Tocris, cat. 3006).
[…]

[1] = second compound 0.0316 µM, first compound 0.0316 µM
[2] = second compound 0.0316 µM, first compound 0.1 µM
[3] = second compound 0.0316 µM, first compound 0.316 µM
[4] = second compound 0.0316 µM, first compound 1 µM
[5] = second compound 0.0316 µM, first compound 3.16 µM
[6] = second compound 0.0316 µM, first compound 10 µM
[7] = second compound 0.1 µM, first compound 0.0316 µM
[8] = second compound 0.1 µM, first compound 0.1 µM
[9] = second compound 0.1 µM, first compound 0.316 µM
[10] = second compound 0.1 µM, first compound 1 µM
[11] = second compound 0.1 µM, first compound 3.16 µM
[12] = second compound 0.1 µM, first compound 10 µM
[13] = second compound 0.316 µM, first compound 0.0316 µM
[14] = second compound 0.316 µM, first compound 0.1 µM
[15] = second compound 0.316 µM, first compound 0.316 µM
[16] = second compound 0.316 µM, first compound 1 µM
[17] = second compound 0.316 µM, first compound 3.16 µM
[18] = second compound 0.316 µM, first compound 10 µM
[19] = second compound 1 µM, first compound 0.0316 µM
[20] = second compound 1 µM, first compound 0.1 µM
[21] = second compound 1 µM, first compound 0.316 µM
[22] = second compound 1 µM, first compound 1 µM
[23] = second compound 1 µM, first compound 3.16 µM
[24] = second compound 1 µM, first compound 10 µM
[25] = second compound 3.16 µM, first compound 0.0316 µM
[26] = second compound 3.16 µM, first compound 0.1 µM
[27] = second compound 3.16 µM, first compound 0.316 µM
[28] = second compound 3.16 µM, first compound 1 µM
[29] = second compound 3.16 µM, first compound 3.16 µM
[30] = second compound 3.16 µM, first compound 10 µM
[31] = second compound 10 µM, first compound 0.0316 µM
[32] = second compound 10 µM, first compound 0.1 µM
[33] = second compound 10 µM, first compound 0.316 µM
[34] = second compound 10 µM, first compound 1 µM
[35] = second compound 10 µM, first compound 3.16 µM
[36] = second compound 10 µM, first compound 10 µM
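Further: spheroids exposed to agents for seven days before readout.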
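Wherever viability, T/C is given: percent of vehicle control viability where 100% = DMSO wells.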

In the case of O=c1[nH]cc(F)c(=O)[nH]1 + CN(C)c1ccc(Nc2c3ccc(NC(=O)CCN4CCCC4)cc3nc3cc(NC(=O)CCN4CCCC4)ccc23)cc1, the IC50 (second compound 0.0316 µM) is reported as > 10 µM, the IC50 (second compound 0.1 µM) is reported as > 10 µM and the IC50 (second compound 0.316 µM) is reported as > 10 µM. For the same molecule, the IC50 (second compound 1 µM) was > 10 µM, the IC50 (second compound 3.16 µM) was > 10 µM and the IC50 (second compound 10 µM) was > 10 µM. For the same molecule, the viability, T/C [1] was 105%, the viability, T/C [2] was 103% and the viability, T/C [3] was 98.7%. The viability, T/C [4] was 100%, the viability, T/C [5] was 78% and the viability, T/C [6] was 85.8%. The viability, T/C [7] was 90.8%, the viability, T/C [8] was 103% and the viability, T/C [9] was 101%. For the same molecule, the viability, T/C [10] was 95.8%, the viability, T/C [11] was 86.4% and the viability, T/C [12] was 97.2%. It also gave a viability, T/C [13] of 89%, a viability, T/C [14] of 88.1% and a viability, T/C [15] of 87.7%. The viability, T/C [16] was 79.7%, the viability, T/C [17] was 86.5% and the viability, T/C [18] was 78.5%. It also gave a viability, T/C [19] of 91.7%, a viability, T/C [20] of 69.9% and a viability, T/C [21] of 80.5%. For the same molecule, the viability, T/C [22] was 73.3%, the viability, T/C [23] was 76.3% and the viability, T/C [24] was 83.2%. For the same molecule, the viability, T/C [25] was 82.7%, the viability, T/C [26] was 83.5% and the viability, T/C [27] was 87.8%. It also gave a viability, T/C [28] of 80.6%, a viability, T/C [29] of 71.4% and a viability, T/C [30] of 75.5%. For the same molecule, the viability, T/C [31] was 76%, the viability, T/C [32] was 80% and the viability, T/C [33] was 80.6%. It also gave a viability, T/C [34] of 79%, a viability, T/C [35] of 87.8% and a viability, T/C [36] of 75%.

In the case of CC1COCCN1c1cc(-c2ccnn2C)c2ccnc(-c3ccn[nH]3)c2n1 (centres undefined) + CN(C)c1ccc(Nc2c3ccc(NC(=O)CCN4CCCC4)cc3nc3cc(NC(=O)CCN4CCCC4)ccc23)cc1, the IC50 (second compound 0.0316 µM) is reported as 7.55 µM, the IC50 (second compound 0.1 µM) is reported as 8.81 µM and the IC50 (second compound 0.316 µM) is reported as > 10 µM. It also gave an IC50 (second compound 1 µM) of 2.12 µM, an IC50 (second compound 3.16 µM) of 1.68 µM and an IC50 (second compound 10 µM) of 1.28 µM. For the same molecule, the viability, T/C [1] was 91.5%, the viability, T/C [2] was 85.6% and the viability, T/C [3] was 71.7%. It also gave a viability, T/C [4] of 65%, a viability, T/C [5] of 53.7% and a viability, T/C [6] of 48.7%. For the same molecule, the viability, T/C [7] was 99.8%, the viability, T/C [8] was 87% and the viability, T/C [9] was 70.9%. It also gave a viability, T/C [10] of 67%, a viability, T/C [11] of 48.1% and a viability, T/C [12] of 51.9%. It also gave a viability, T/C [13] of 95.7%, a viability, T/C [14] of 76.4% and a viability, T/C [15] of 86.9%. The viability, T/C [16] was 64.5%, the viability, T/C [17] was 52.7% and the viability, T/C [18] was 48.6%. The viability, T/C [19] was 86.8%, the viability, T/C [20] was 68.5% and the viability, T/C [21] was 63.8%. For the same molecule, the viability, T/C [22] was 53.6%, the viability, T/C [23] was 50% and the viability, T/C [24] was 42.1%. It also gave a viability, T/C [25] of 87.5%, a viability, T/C [26] of 74.8% and a viability, T/C [27] of 72.7%. It also gave a viability, T/C [28] of 54.9%, a viability, T/C [29] of 41.8% and a viability, T/C [30] of 39.5%. The viability, T/C [31] was 74.2%, the viability, T/C [32] was 72.3% and the viability, T/C [33] was 52.8%. It also gave a viability, T/C [34] of 59.5%, a viability, T/C [35] of 39% and a viability, T/C [36] of 36.2%.
